Data published in patent US8961949B2, “Polymer-metal complex composite having MRI contrast ability and MRI contrasting and/or antitumor composition using the same” (Japan Science and Technology Agency, priority 2008, dated 2015).
Entries after “also recorded” stand apart in the source; their conditions may differ.

Key:
[1] = system: human pancreatic cancer cells (BxPC3); test: in vivo MRI in orthotopic transplantation model of BxPC3; design: species or system Nude mice; conditions: equal amounts of micelles and free Gd-DTPA
Method: Nude mice (female, 6 weeks of age) were laparotomized under inhalation anesthesia, injected with 0.1 ml of human pancreatic cancer cells (BxPC3) under the serous membrane of the pancreas and then kept for 1 month to prepare an orthotopic transplantation model. MRI was imaged with a 4.7 Tesla Superconductive Magnet Unit (Varian, Palo Alto, Calif.) VXR-MRI Console under the following imaging conditions: repetition time (TR): 500 ms, echo time (TE): 15 ms, field of view (FOV): 32 mm×32 mm, matrix size: 256×256, slice thickness: 2 mm to obtain Spin Echo T1w images. The mice were injected under 5% isoflurane inhalation anesthesia and maintained under 1.2% isoflurane anesthesia during imaging. […] Imaging was performed every 5 minutes during the first 1 hour after injection via the tail vein, then every 15 minutes for 4 hours. Moreover, an equal amount of free Gd-DTPA serving as a control was also injected via the tail vein and imaged in the same manner. The resulting images were analyzed by Mathematica (Wolfram Research Inc.) and Excel (Microsoft, Inc.).

[2] = blood at 1, 4, 8 and 24 hours after tail vein injection of 0.2 ml
From the text: After collection, the blood was rapidly mixed with heparin to prevent coagulation, and then centrifuged to collect plasma only. The collected plasma was mixed with 90% HNO3, heated and dried, dissolved in 5N HCl, and then diluted appropriately, followed by ICP-MS to determine Gd and Pt contents.

[3] = system: human pancreatic cancer cells (BxPC3); test: antitumor effect (tumor size) on subcutaneous BxPC3 tumor; type: in vivo, Nude mice; conditions: Pt 8 mg/ml

| Compound | contrast enhancement / intensity in tumor [1] | residual drug content in plasma / retention in blood [2] | antitumor effect (tumor size), words ([3]; 0.2 ml i.v. on day 0, 2 and 4) | antitumor effect (tumor size), words ([3]; 0.2 ml i.v. on day 0, 2 and 4, listed as Oxaliplatin) |
| --- | --- | --- | --- | --- |
| O=C([O-])CN(CCN(CC(=O)[O-])CC(=O)O)CCN(CC(=O)[O-])CC(=O)O.[Gd+3] [Gd-DTPA, gadolinium diethylene triamine pentaacetic acid] | little contrast enhancement; also recorded: little increase in intensity | rapidly disappear from plasma |  |  |
| O=C1[O][Pt]2([NH][C@@H]3CCCC[C@H]3[NH]2)[O]C1=O [oxaliplatin] |  | rapidly disappear from plasma | substantially the same tendency as the control | little therapeutic effect |
